In patent US9290511B2, “Thieno-pyrimidines, useful as potassium channel inhibitors” (XENTION LIMITED, priority 2011, dated 2016):

What follows are compounds tested against T1, Kir3.1/3.4 (Rattus norvegicus, UniProt P48548+P63251) (assay: Kir3.1/3.4 Electrophysiology Method (manual whole-cell patch clamp)). Details: Electrophysiology Method (TABLE 1).
T1 construct: expressed in transfected cells
T1 sequence (P63251 1-501): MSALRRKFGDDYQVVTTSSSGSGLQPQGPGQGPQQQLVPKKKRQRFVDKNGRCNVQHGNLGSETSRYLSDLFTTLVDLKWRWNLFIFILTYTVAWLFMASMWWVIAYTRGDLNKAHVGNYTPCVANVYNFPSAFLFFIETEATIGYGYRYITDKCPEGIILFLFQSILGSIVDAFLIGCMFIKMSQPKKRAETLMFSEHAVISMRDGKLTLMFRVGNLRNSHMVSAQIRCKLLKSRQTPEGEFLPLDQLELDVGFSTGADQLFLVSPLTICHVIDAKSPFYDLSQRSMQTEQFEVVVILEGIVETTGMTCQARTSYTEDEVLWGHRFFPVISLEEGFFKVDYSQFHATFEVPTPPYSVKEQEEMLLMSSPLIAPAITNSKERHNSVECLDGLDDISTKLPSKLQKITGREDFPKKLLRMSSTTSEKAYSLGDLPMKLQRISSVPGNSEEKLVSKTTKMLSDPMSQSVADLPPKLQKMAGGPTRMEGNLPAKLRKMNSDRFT
T1 sequence (P48548 1-419): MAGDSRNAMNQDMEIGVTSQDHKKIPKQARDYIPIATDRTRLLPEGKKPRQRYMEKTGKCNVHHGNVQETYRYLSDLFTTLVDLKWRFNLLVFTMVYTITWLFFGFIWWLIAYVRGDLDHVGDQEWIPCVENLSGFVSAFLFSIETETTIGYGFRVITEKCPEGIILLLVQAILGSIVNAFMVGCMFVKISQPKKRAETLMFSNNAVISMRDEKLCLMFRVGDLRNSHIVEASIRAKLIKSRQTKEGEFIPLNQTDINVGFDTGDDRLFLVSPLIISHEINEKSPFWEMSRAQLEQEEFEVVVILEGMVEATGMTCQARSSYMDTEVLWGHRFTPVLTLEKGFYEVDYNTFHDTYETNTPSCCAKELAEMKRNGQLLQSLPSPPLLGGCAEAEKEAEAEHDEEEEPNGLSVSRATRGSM
Assay type: cell-based
Summary of the method: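 Manual whole-cell patch clamp on HEK293 cells stably expressing rat Kir3.1/3.4, with GTPγS in the pipette. Cells were held at −60 mV and stepped to +60 mV, then ramped to −140 mV every 10 s. Steady-state inhibition at −140 mV was measured after subtracting leak recorded in zero-K+ bath.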

Compound	IC50
CN1CCC(N(C)CC2CCN(c3nc(NCC4CC4)nc4scc(-c5ccccc5)c34)CC2)C1 (stereo not drawn) [Example 119]	< 500 nM
CNC(=O)c1sc2ncnc(N3CCC(CN(C)C4CCN(C)C4)CC3)c2c1-c1ccccc1 (stereo not drawn) [Example 131]	3000 to 10000 nM
c1ccc(-c2csc3nc(C4CC4)nc(N4C5CCC4CC(NC4CCC4)C5)c23)cc1 (stereo not drawn) [Example 321, N-cyclobutyl-8-(2-cyclopropyl-5-phenyl-thieno[2,3-d]pyrimidin-4-yl)-8-azabicyclo[3.2.1]octan-3-amine]	< 500 nM
Fc1ccc(-c2csc3ncnc(N4CC5C(COCCN6CC[C@H](F)C6)C5C4)c23)cc1 (stereo partly drawn) [Example 47, 5-(4-fluorophenyl)-4-[6-[2-[(3S)-3-fluoropyrrolidin-1-yl]ethoxymethyl]-3-azabicyclo[3.1.0]hexan-3-yl]thieno[2,3-d]pyrimidine]	< 500 nM
CN1CCCC1CCNCC1CCN(c2ncc3c(-c4ccccc4)csc3n2)CC1 (stereo not drawn) [Example 146]	< 500 nM
CC(C)c1csc2nc(N3CCC(COCCN4CCCC4)CC3)ncc12 [Example 157]	< 500 nM
CN1CCCCC1CCNCC1CCN(c2ncnc3scc(-c4ccccc4)c23)CC1 (stereo not drawn) [Example 80, 2-(1-methyl-2-piperidyl)-N-[[1-(5-phenylthieno[2,3-d]pyrimidin-4-yl)-4-piperidyl]methyl]ethanamine]	< 500 nM
COCC1CCN(c2nc(N3C4CCC3CC(O)C4)nc3scc(-c4ccccc4)c23)CC1 (stereo not drawn) [Example 299]	500 to 3000 nM
CN(CCC1CCCN1C)CC1CCN(c2ncnc3scc(-c4ccccc4)c23)CC1 (stereo not drawn) [Example 101]	< 500 nM
CN1CCC(N(C)CC2CCN(c3nc(N4CCC(C(N)=O)C4)nc4scc(-c5ccccc5)c34)CC2)C1 (stereo not drawn) [Example 120, 1-[4-[4-[[methyl-(1-methylpyrrolidin-3-yl)amino]methyl]-1-piperidyl]-5-phenyl-thieno[2,3-d]pyrimidin-2-yl]pyrrolidine-3-carboxamide]	< 500 nM
CN1CCN(CC2CCN(c3ncnc4scc(-c5ccccc5)c34)CC2)CC1 [Example 214]	< 500 nM
CN(C)C(=O)c1sc2ncnc(N3CCC(COCCN4CCCC4)CC3)c2c1-c1cccc(F)c1 [Example 138]	< 500 nM
CN1CCN(c2nc(N3CCC(CN4CCCC(N(C)C)C4)CC3)c3c(-c4ccccc4)csc3n2)CC1 (stereo not drawn) [Example 115]	< 500 nM
CC(C)NC(=O)c1sc2ncnc(N3C4CCC3CC(N3CCCC3)C4)c2c1-c1ccccc1 (stereo not drawn) [Example 354]	< 500 nM
5-phenyl-thieno[2,3-d]pyrimidine-2-carbonitrile [Example 338]	< 500 nM
CC(C)c1csc2ncnc(N3C4CCC3CC(OCCN3CCCC3)C4)c12 (stereo not drawn) [Example 297]	< 500 nM
CN1CCCC1CCNCC1CCN(c2ncnc3scc(-c4ccccc4)c23)CC1 (stereo not drawn) [Example 58, 2-(1-methylpyrrolidin-2-yl)-N—[[1-(5-phenylthieno[2,3-d]pyrimidin-4-yl)-4-piperidyl]methyl]ethanamine]	< 500 nM

Compound	IC50
OCC1CC2CCC(C1)N2c1nc(N2CCOCC2)c2c(-c3ccccc3)csc2n1 (stereo not drawn) [Example 165, [8-(4-morpholino-5-phenyl-thieno[2,3-d]pyrimidin-2-yl)-8-azabicyclo[3.2.1]octan-3-yl]methanol]	500 to 3000 nM
c1ccc(-c2csc3ncnc(N4CCC(CNCCC5CC5)CC4)c23)cc1 [Example 103]	< 500 nM
NC(=O)[C@H]1CCCN1CCOCC1C2CN(c3ncnc4scc(-c5ccc(F)cc5)c34)CC12 (stereo partly drawn) [Example 45, (2R)-1-[2-[[3-[5-(4-fluorophenyl)thieno[2,3-d]pyrimidin-4-yl]-3-azabicyclo[3.1.0]hexan-6-yl]methoxy]ethyl]pyrrolidine-2-carboxamide]	< 500 nM
c1ccc(-c2csc3ncnc(N4[C@@H]5CC[C@H]4CC(COCCN4CCCC4)C5)c23)cc1 (stereo partly drawn) [Example 164, 5-phenyl-4-[(1S,5R)-3-(2-pyrrolidin-1-ylethoxymethyl)-8-azabicyclo[3.2.1]octan-8-yl]thieno[2,3-d]pyrimidine]	< 500 nM
CN1CCCC1CCOCC1CCN(c2ncnc3sccc23)CC1 (stereo not drawn) [Example 3, 4-[4-[2-(1-methylpyrrolidin-2-yl)ethoxymethyl]-1-piperidyl]thieno[2,3-d]pyrimidine]	3000 to 10000 nM
CC1CCC(C)N1CC1CCN(c2ncnc3scc(-c4ccccc4)c23)CC1 (stereo not drawn) [Example 98, 4-[4-[(2,5-dimethylpyrrolidin-1-yl)methyl]-1-piperidyl]-5-phenyl-thieno[2,3-d]pyrimidine]	500 to 3000 nM
c1ccc(-c2csc3nc(N4CCN(CCN5CCCC5)CC4)ncc23)cc1 [Example 145]	< 500 nM
Cc1ccccc1-c1csc2ncnc(N3C4CCC3CC(NC3CCC3)C4)c12 (stereo not drawn) [Example 344]	< 500 nM
FC(F)(F)C1CCN(CC2CCN(c3ncnc4scc(-c5ccccc5)c34)CC2)CC1 [Example 99, 5-phenyl-4-[4-[[4-(trifluoromethyl)-1-piperidyl]methyl]-1-piperidyl]thieno[2,3-d]pyrimidine]	500 to 3000 nM
CN1CCN(c2nc(N3CCC(CNC4CCC4)CC3)c3c(-c4ccccc4)csc3n2)CC1 [Example 116]	< 500 nM
c1ccc(-c2csc3nc(N4CCC(COCCN5CC6CC5CO6)CC4)ncc23)cc1 (stereo not drawn) [Example 154]	< 500 nM
CN1CCC(CCNCC2CCN(c3ncnc4scc(-c5ccccc5)c34)CC2)C1 (stereo not drawn) [Example 104]	< 500 nM
CC(C)c1csc2ncnc(N3C4CCC3CC(COCCN3CCCC3)C4)c12 (stereo not drawn) [Example 287]	< 500 nM
c1ccc(-c2csc3ncnc(N4CCC(CNCCC5CCCN5)CC4)c23)cc1 (stereo not drawn) [Example 85, N-[[1-(5-phenylthieno[2,3-d]pyrimidin-4-yl)-4-piperidyl]methyl]-2-pyrrolidin-2-yl-ethanamine]	500 to 3000 nM
CCc1c(C)sc2ncnc(N3CCC(COCCN4CCOCC4)CC3)c12 [Example 23, 4-[2-[[1-(5-ethyl-6-methyl-thieno[2,3-d]pyrimidin-4-yl)-4-piperidyl]methoxy]ethyl]morpholine]	< 500 nM
CN1CCC(N(C)CC2CCN(c3nc(N4CCCCC4C(N)=O)nc4scc(-c5ccccc5)c34)CC2)C1 (stereo not drawn) [Example 129]	500 to 3000 nM
c1ccc(-c2csc3ncnc(N4CCC(CNCC5CC5)CC4)c23)cc1 [Example 49, 1-cyclopropyl-N-[[1-(5-phenylthieno[2,3-d]pyrimidin-4-yl)-4-piperidyl]methyl]methanamine]	< 500 nM

Results, then the compound that gave them:

IC50	Compound
500 to 3000 nM	CN1CC(N(C)CC2CCN(c3ncnc4scc(-c5ccccc5)c34)CC2)CC1=O (stereo not drawn) [Example 250]
< 500 nM	Fc1ccc(-c2csc3ncnc(N4CC5C(COCCN6CC[C@@H](F)C6)C5C4)c23)cc1 (stereo partly drawn) [Example 278]
< 500 nM	NC(=O)[C@@H]1CCCN1CCOCC1C2CN(c3ncnc4scc(-c5ccc(F)cc5)c34)CC12 (stereo partly drawn) [Example 277]
< 500 nM	CN1CCC(N(C)CC2CCN(c3nc(CN4CCCC4=O)nc4scc(-c5ccccc5)c34)CC2)C1 (stereo not drawn) [Example 244, 1-[[4-[4-[[methyl-(1-methylpyrrolidin-3-yl)amino]methyl]-1-piperidyl]-5-phenyl-thieno[2,3-d]pyrimidin-2-yl]methyl]pyrrolidin-2-one]
< 500 nM	COCC1CCN(c2nc(N3CCN(C)CC3)nc3scc(-c4ccccc4)c23)CC1 [Example 174]
< 500 nM	O=C(Cc1nc(N2CCCC2c2ccccc2)c2c(-c3ccc(F)cc3)csc2n1)NCCN1CCCC1 (stereo not drawn) [Example 199]
< 500 nM	Cc1csc2ncnc(N3CC(CNCCC4CCCN4C)CC3c3ccccc3)c12 (stereo not drawn) [Example 210]
< 500 nM	CCN(CC)C(=O)C1CCCN(CC2CCN(c3ncnc4scc(-c5ccccc5)c34)CC2)C1 (stereo not drawn) [Example 246]
500 to 3000 nM	COCC1CCN(c2nc(NCCC3CCCN3C)nc3scc(C4CCCCC4)c23)CC1 (stereo not drawn) [Example 177]
< 500 nM	Cc1sc2nc(N3CCC(C(N)=O)C3)nc(N3CCC(CNCCC4CCCCN4C)CC3)c2c1C (stereo not drawn) [Example 240]
< 500 nM	NC(=O)C1CCN(c2nc(N3CCC(COCCN4CCCC4)CC3)nc3scc(-c4ccccc4)c23)C1 (stereo not drawn) [Example 274]
< 500 nM	CCOc1ncccc1-c1csc2ncnc(N3CCC(COCCN4CCCC4)CC3)c12 [Example 331]
500 to 3000 nM	c1ccc(-c2csc3ncnc(N4CC(COCCN5CCCC5)C4)c23)cc1 [Example 273]
< 500 nM	F[C@H]1CCN(CCOC2CC3CC2CN3c2ncnc3scc(-c4ccccc4)c23)C1 (stereo partly drawn) [Example 291]
< 500 nM	COCC1CCN(c2nc(NCCN(C)C)nc3scc(-c4ccccc4)c23)CC1 [Example 173]
< 500 nM	NC(=O)C1CCCN1CC1CCN(c2ncnc3scc(-c4ccccc4)c23)CC1 (stereo not drawn) [Example 247]
< 500 nM	OC1CCN(CC2CCN(c3ncnc4scc(C5CCCCC5)c34)CC2)C1 (stereo not drawn) [Example 200]
